Assay results taken from the supplement of paper PMC4862054.
Several values for one entry are separate records, joined by “and”; a condition that tells them apart may be missing. Identical values can stand only once.

Columns and labels:
Experiment in all cases: normalised viability (% of control), CellTiter-Blue; higher = more viable cells (about 100 = DMSO control)
Settings in all cases: incubation time: 72 h
[1] = test system: HDQ-P1
In short: (§1)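 Each value is normalised viability at a single listed concentration of the series. Breast cancer cell lines in 384-well plates were incubated 72 h with compound and read by CellTiter-Blue fluorescence at 560/590 nm, with vehicle set to 100 and a positive kill control to 0 on every plate.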

[2] = test system: Hs578T
In short: as §1

[3] = test system: CAL-51
In short: as §1

[4] = test system: DU-4475
In short: as §1

[5] = test system: HCC1937
In short: as §1

[6] = test system: MDA-MB-436
In short: as §1

[7] = test system: HCC1599
In short: as §1

[8] = test system: HCC1143
In short: as §1

[9] = test system: MFM-223
In short: as §1

[10] = test system: BT-549
In short: as §1

[11] = test system: MDA-MB-468
In short: as §1

[12] = test system: MDA-MB-453
In short: as §1

[13] = test system: CAL-85-1
In short: as §1

[14] = test system: SK-BR-3
In short: as §1

[15] = test system: CAL-148
In short: as §1

CC(C)C[C@@H](C(=O)N[C@H](C(=O)OC1CCCC1)c1ccccc1)[C@H](O)C(=O)NO [Tosedostat]
normalised viability [%]
Settings | 3 nM | 10 nM | 30 nM | 100 nM | 1000 nM | 10000 nM
[1] | 116 | – | 100 | 111 | – | –
[2] | – | 96.9 | – | – | 86 | 70
[3] | 110 | – | 111 | 86.5 | – | –
[4] | 95.7 | – | 98.6 | 68 | – | –
[5] | – | 83.6 | – | – | 36.8 | 44.5
[6] | – | 92.4 | – | – | 73.1 | 75.3
[7] | – | 96.5 | – | – | 81.6 | 106
[8] | – | 86.3 | – | – | 63.8 | 61.1
[9] | – | 91.6 | – | – | 64.1 | 32
[10] | – | 85 | – | – | 63 | 39.1
[11] | – | 91.5 | – | – | 55.5 | 54.2
[12] | 119 | – | 101 | 60.4 | – | –
[13] | 104 | – | 97.8 | 90.8 | – | –
[14] | – | 96 | – | – | 85.7 | 63.4
[15] | 100 | – | 96.3 | 81.2 | – | –

COCC[n+]1c2c(n(Cc3cnccn3)c1C)C(=O)c1ccccc1C2=O [YM155]
normalised viability [%]
Settings | 3 nM | 10 nM | 30 nM | 100 nM | 1000 nM | 10000 nM
[1] | 80.4 | – | 16.8 | 0.96 | – | –
[2] | – | 84.8 | – | – | 19.6 | -0.04
[3] | 94.6 | – | 38.9 | 11.5 | – | –
[4] | 124 | – | 95.8 | 57.8 | – | –
[5] | – | 25 | – | – | 0.8 | 2.31
[6] | – | 34.5 | – | – | 0.04 | 0.01
[7] | – | 62.8 | – | – | 3.16 | 2.97
[8] | – | 83.8 | – | – | 3.34 | 2.44
[9] | – | 62.8 | – | – | 12.2 | 6.53
[10] | – | 83 | – | – | 0.74 | -0.61
[11] | – | 12.8 | – | – | 0.21 | 0.26
[12] | 70.7 | – | 18.7 | 18.2 | – | –
[13] | 90.3 | – | 3.33 | 1.96 | – | –
[14] | – | 44.3 | – | – | 0.33 | 0.6
[15] | 98.3 | – | 1.65 | 1.83 | – | –

CCc1c2c(nc3ccc(OC(=O)N4CCC(N5CCCCC5)CC4)cc13)-c1cc3c(c(=O)n1C2)COC(=O)[C@]3(O)CC [Irinotecan]
Settings | normalised viability
[1], 3 nM | 109% and 101%
[1], 30 nM | 99.4% and 104%
[1], 100 nM | 99.8% and 101%
[2], 10 nM | 98.6% and 100%
[2], 1000 nM | 83% and 95.2%
[3], 3 nM | 106% and 120%
[3], 30 nM | 99% and 110%
[3], 100 nM | 98.4% and 106%
[4], 3 nM | 111% and 115%
[4], 30 nM | 87.3% and 103%
[4], 100 nM | 101% and 93.7%
[5], 10 nM | 110% and 91.4%
[5], 1000 nM | 54.7% and 60.4%
[5], 10000 nM | 27.8% and 10.4%
[6], 10 nM | 89.1% and 93%
[6], 1000 nM | 79.6% and 92.3%
[7], 10 nM | 81.2% and 102%
[7], 1000 nM | 74.3% and 81.7%
[7], 10000 nM | 57.8% and 78.1%
[8], 10 nM | 74.2% and 87.3%
[8], 1000 nM | 91.4% and 95.9%
[8], 10000 nM | 47.7% and 62.6%
[9], 10 nM | 88.5% and 97%
[9], 1000 nM | 100% and 99.8%
[10], 10 nM | 80.8% and 86%
[10], 1000 nM | 82.2% and 84.3%
[10], 10000 nM | 71% and 62%
[11], 10 nM | 106% and 105%
[11], 1000 nM | 76% and 87.3%
[11], 10000 nM | 35.5% and 42.8%
[12], 3 nM | 101% and 124%
[12], 30 nM | 85.5% and 96.2%
[12], 100 nM | 99.8% and 110%
[13], 3 nM | 94.6% and 96.1%
[13], 30 nM | 78.8% and 92.5%
[13], 100 nM | 86.4% and 103%
[14], 10 nM | 92.4% and 108%
[14], 10000 nM | 36.6% and 41.3%
[15], 3 nM | 77.4% and 98.8%
[15], 30 nM | 90.3% and 101%
[15], 100 nM | 80.5% and 99.7%
